# Where two headings read alike, the source gives them in different places.
# Tests used:
# Type in all cases: cell-based
# [1] = system: 15-PGDH luciferase fusion construct in V9m reporter cell line; experiment: 15-PGDH-luciferase fusion gene reporter induction, V9m cells
# [2] = system: 15-PGDH luciferase fusion construct in LS174T reporter cell line; experiment: 15-PGDH-luciferase fusion gene reporter induction, LS174T cells; details: Homo sapiens
# [3] = system: 15-PGDH luciferase fusion construct in Vaco503 reporter cell line; experiment: 15-PGDH-luciferase fusion gene reporter induction, V503 cells
# [4] = read-out: V9M-SC3 Reporter activity ([…]) (%), V9m reporter cells, […] compound, % induction of luciferase activity over basal level, read-out: V9M-SC3 Reporter activity (2.5 μM) (%)
# [5] = read-out: V9M-SC3 Reporter activity ([…]), %, V9m reporter cells, […] compound, % induction of luciferase activity over basal level, read-out: V9M-SC3 Reporter activity (7.5 μM), %
# [6] = read-out: Ls174T-SC1 reporter activity, % ([…]), LS174T reporter cells, […] compound, % induction of luciferase activity over basal level, read-out: Ls174T-SC1 reporter activity, % (2.5 μM)
# [7] = read-out: Ls174T-SC1 reporter activity, % ([…]), LS174T reporter cells, […] compound, % induction of luciferase activity over basal level, read-out: Ls174T-SC1 reporter activity, % (7.5 μM)
# [8] = read-out: V503-3H9-7 reporter activity, % ([…]), V503 reporter cells, […] compound, % induction of luciferase activity over basal level, read-out: V503-3H9-7 reporter activity, % (2.5 μM)
# [9] = read-out: V503-3H9-7 reporter activity, % ([…]), V503 reporter cells, […] compound, % induction of luciferase activity over basal level, read-out: V503-3H9-7 reporter activity, % (7.5 μM)
# [10] = read-out: V9M reporter activity ([…]), […], % increased luciferase activity over basal level, 100 = doubling, read-out: V9M reporter activity (2.5 uM)
# [11] = read-out: V9M reporter activity ([…]), […], % increased luciferase activity over basal level, 100 = doubling, read-out: V9M reporter activity (7.5 uM)
# [12] = read-out: LS174T reporter activity ([…]), […], % increased luciferase activity over basal level, read-out: LS174T reporter activity (2.5 uM)
# [13] = read-out: LS174T reporter activity ([…]), […], % increased luciferase activity over basal level, read-out: LS174T reporter activity (7.5 uM)
# [14] = read-out: V503 reporter activity ([…]), […], % increased luciferase activity over basal level, read-out: V503 reporter activity (2.5 uM)
# [15] = read-out: V503 reporter activity ([…]), […], % increased luciferase activity over basal level, read-out: V503 reporter activity (7.5 uM)
Compound,"activation at […] [1, 4] [%]","activation at […] [1, 5] [%]","activation at […] [2, 6] [%]","activation at […] [2, 7] [%]","activation at […] [3, 8] [%]","activation at […] [3, 9] [%]","activation at […] [1, 10] [%]","activation at […] [1, 11] [%]","activation at […] [2, 12] [%]","activation at […] [2, 13] [%]","activation at […] [3, 14] [%]","activation at […] [3, 15] [%]"
COc1ccc(OC)c(N(CC(=O)Nc2cc(C)cnc2Cl)S(=O)(=O)c2ccccc2)c1 [SW202972],-15.4,0.14,-17.4,16.6,39.4,100,–,–,–,–,–,–
COc1ccc(OC)c(N(CC(=O)Nc2cccnc2Cl)S(=O)(=O)c2ccccc2)c1 [SW202973],-15.6,5.61,-16.4,19.3,41.5,107,–,–,–,–,–,–
COc1ccc(OC)c(N(CC(=O)Nc2cncc(C)c2)S(=O)(=O)c2ccccc2)c1 [SW202974],-9.04,35.9,-8.77,34.8,59.9,179,–,–,–,–,–,–
COc1ccc(OC)c(N(CC(=O)Nc2ccccc2C)S(=O)(=O)c2ccccc2)c1 [SW202975],-26.6,-8.97,-7.32,17.2,47.4,116,–,–,–,–,–,–
COc1cccc(NC(=O)CN(c2cc(OC)ccc2OC)S(=O)(=O)c2ccccc2)c1 [SW202976],-18.5,9.6,-9.97,30.1,36.8,138,–,–,–,–,–,–
COc1ccc(OC)c(N(CC(=O)OC2CCCCC2)S(=O)(=O)c2ccccc2)c1 [SW202978],-13.8,-0.07,-10.1,20.4,46.8,116,–,–,–,–,–,–
COc1ccc(OC)c(N(CC(=O)OC(C)(C)C)S(=O)(=O)c2ccccc2)c1 [SW202979],-14.4,10.8,-8.92,17.8,41.6,133,–,–,–,–,–,–
COC(=O)CN(c1cc(OC)ccc1OC)S(=O)(=O)c1ccccc1 [SW202980],-27.6,-13.4,-7.34,5.17,11.4,50.6,–,–,–,–,–,–
COc1ccc(OC)c(N(CC(=O)Nc2cccc(Cl)c2)S(=O)(=O)c2ccccc2)c1 [SW202985],-27.3,-21.9,-4.89,26.3,79.6,150,–,–,–,–,–,–
CCCOC(=O)CN(c1cc(OC)ccc1OC)S(=O)(=O)c1ccccc1 [SW202986],-22.9,-9.6,0.21,33.8,60.2,175,–,–,–,–,–,–
COc1ccc(OC)c(N(CC(=O)Nc2ccccc2Cl)S(=O)(=O)c2ccccc2)c1 [SW202987],-22,-21,-8.3,20.6,70.1,145,–,–,–,–,–,–
COc1ccc(OC)c(N(C(C)C(=O)Nc2cccnc2)S(=O)(=O)c2ccccc2)c1 (stereo not drawn) [SW202991],-25,-7.5,-15.6,2.09,-6.08,8.9,–,–,–,–,–,–
COc1ccc(OC)c(N(CC(=O)Nc2cccnn2)S(=O)(=O)c2ccccc2)c1 [SW203680],14,25.2,11.7,46,10.4,33,–,–,–,–,–,–
COc1ccc(OC)c(N(CC(=O)Nc2cnccn2)S(=O)(=O)c2ccccc2)c1 [SW203681],18,122,121,152,90.4,72.4,–,–,–,–,–,–
CNC(=O)CN(c1cc(OC)ccc1OC)S(=O)(=O)c1ccccc1 [SW203682],15.3,22.4,187,13.8,-32.2,79.2,–,–,–,–,–,–
COc1ccc(OC)c(N(CC(=O)Nc2cccnc2)S(=O)(=O)c2cccc(C)c2)c1 [SW203684],50.7,74.9,170,119,81.2,52.5,–,–,–,–,–,–
COc1ccc(OC)c(N(CC(=O)N(C)c2cccnc2)S(=O)(=O)c2ccccc2)c1 [SW203686],15.1,30.3,116,28.5,-11,65.6,–,–,–,–,–,–
COc1ccc(OC)c(N(CC(=O)Nc2ccccc2)S(=O)(=O)c2ccccc2)c1 [SW203687],28.2,47.5,1.75,56,45.7,-41.6,–,–,–,–,–,–
COc1ccc(OC)c(CN(CC(=O)Nc2cccnc2)S(=O)(=O)c2ccccc2)c1 [SW203688],12.1,6.04,12.6,14.8,-28.1,-99.5,–,–,–,–,–,–
"CCCCC(=O)c1sc2nc(-c3cccs3)cc(-c3ccccc3)c2c1N [SW206976, 1-(3-amino-4-phenyl-6-(thiophen-2-yl)thieno[2,3-b]pyridin-2-yl)pentan-1-one]",–,–,–,–,–,–,11.8,17.5,42.4,20.6,16.8,49.5
"CCCNC(=O)c1sc2nc(-c3cccs3)cc(-c3ccccc3)c2c1N [SW206977, 3-amino-4-phenyl-N-propyl-6-(thiophen-2-yl)thieno[2,3-b]pyridine-2-carboxamide]",–,–,–,–,–,–,3.5,0.45,34.9,29.4,33,37.6
"CCOC(=O)c1sc2nc(-c3cccs3)cc(-c3ccccc3)c2c1N [SW206978, Ethyl 3-amino-4-phenyl-6-(thiophen-2-yl)thieno[2,3-b]pyridine-2-carboxylate]",–,–,–,–,–,–,7.51,8.02,31.4,26.2,38.8,35.8
COc1ccc(OC)c(N(CC(=O)N2CCCCCC2)S(=O)(=O)c2ccccc2)c1 [SW208000],33.5,36.6,42,70.5,122,138,–,–,–,–,–,–
COc1ccc(OC)c(N(CC(=O)N2CCCC2)S(=O)(=O)c2ccccc2)c1 [SW208001],19.6,23.3,-0.61,1.87,-4.07,6.68,–,–,–,–,–,–
COc1ccc(OC)c(N(CC(=O)N2CCCC2=O)S(=O)(=O)c2ccccc2)c1 [SW208002],-12.4,-21.8,-14.5,-14.6,-15.7,-16.5,–,–,–,–,–,–
COc1ccc(OC)c(N(CC(=O)N2CCc3ccccc32)S(=O)(=O)c2ccccc2)c1 [SW208003],13.3,-11.5,37,45.6,117,75.9,–,–,–,–,–,–
COc1ccc(OC)c(N(CC(=O)Nc2ccncc2F)S(=O)(=O)c2ccccc2)c1 [SW208004],43.7,76.1,62.2,118,147,177,–,–,–,–,–,–
COc1ccc(OC)c(N(CC(=O)Nc2ccnc(F)c2)S(=O)(=O)c2ccccc2)c1 [SW208005],42.4,19.8,63.9,53.9,103,61.2,–,–,–,–,–,–
COc1ccc(OC)c(N(CC(=O)N2CCCc3ccccc32)S(=O)(=O)c2ccccc2)c1 [SW208006],34.9,0.15,38.2,42.2,89.7,43.9,–,–,–,–,–,–
COc1ccc(S(=O)(=O)N(CC(=O)Nc2cccnc2)c2cc(C(F)(F)F)ccc2C(F)(F)F)cc1 [SW208008],-5.96,-0.92,-2.16,10,31.9,39.6,–,–,–,–,–,–

# From patent US9790233B2, “Compositions and methods of modulating 15-PGDH activity” (CASE WESTERN RESERVE UNIVERSITY, priority 2012, dated 2017)
